According to patent publication US7517874B2 (priority 2007, dated 2009):

Legend:
[1] = molecular target: human CB1 receptor (hCB1) (Homo sapiens, UniProt P21554); assay: cell-based; assay type: cell-based; details: for +/− HCB1: agonist or inverse agonist at hCB1
How it was run: (§1)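 First, cells in IBMX-containing HEPES-buffered HBSS are raised to elevated cAMP with 2-8 μM NKH-477 for 30 min. Data are normalised to the forskolin and forskolin + 1 μM CP55,940 controls.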

[2] = molecular target: T1, rat CB2 receptor (rCB2) (Rattus norvegicus, UniProt Q9QZN9); assay: cell-based; assay type: cell-based; details: for +/− RCB2: agonist or inverse agonist at rCB2
T1 sequence (Q9QZN9 1-360): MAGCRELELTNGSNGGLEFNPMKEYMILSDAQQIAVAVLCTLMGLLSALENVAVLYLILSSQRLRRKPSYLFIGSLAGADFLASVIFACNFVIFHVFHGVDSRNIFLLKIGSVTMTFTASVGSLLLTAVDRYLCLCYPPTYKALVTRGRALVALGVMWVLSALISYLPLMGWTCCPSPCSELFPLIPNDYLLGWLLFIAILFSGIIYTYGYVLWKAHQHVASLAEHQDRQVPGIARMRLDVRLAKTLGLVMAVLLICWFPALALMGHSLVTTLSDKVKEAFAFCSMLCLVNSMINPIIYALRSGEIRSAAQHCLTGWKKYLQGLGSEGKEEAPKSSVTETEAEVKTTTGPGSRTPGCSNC
How it was run: as §1

Chain of human CB1 receptor (hCB1) (P21554 whole entry): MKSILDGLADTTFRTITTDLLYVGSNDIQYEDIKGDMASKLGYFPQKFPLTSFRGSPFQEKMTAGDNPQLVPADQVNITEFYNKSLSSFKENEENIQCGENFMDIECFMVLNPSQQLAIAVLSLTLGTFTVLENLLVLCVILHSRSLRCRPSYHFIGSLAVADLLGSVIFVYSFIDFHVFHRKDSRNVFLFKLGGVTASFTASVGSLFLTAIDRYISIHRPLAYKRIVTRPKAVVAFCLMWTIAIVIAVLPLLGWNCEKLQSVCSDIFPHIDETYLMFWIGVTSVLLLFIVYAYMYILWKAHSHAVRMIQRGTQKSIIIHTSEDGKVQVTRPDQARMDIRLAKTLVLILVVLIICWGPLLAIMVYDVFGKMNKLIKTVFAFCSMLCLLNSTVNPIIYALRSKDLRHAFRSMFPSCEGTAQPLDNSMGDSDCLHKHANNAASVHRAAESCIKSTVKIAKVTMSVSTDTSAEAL

Row | Compound | EC50 [1] [µM] | EC50 [2] [µM] | +/− HCB1 [1] | +/− RCB2 [2]
1 | CNC(=O)[C@H](CC(C)(C)C)NC(=O)c1nc(-c2cc(F)ccc2F)n2c1CN(C)CCC2 [Compound 553, (S)-3-(2,5-difluorophenyl)-N-(4,4-dimethyl-1-(methylamino)-1-oxopentan-2-yl)-8-methyl-6,7,8,9-tetrahydro-5H-imidazo[1,5-a][1,4]diazepine-1-carboxamide] | > 10 | > 10 |  | 
2 | CNC(=O)[C@H](CC(C)(C)C)NC(=O)c1nc(-c2cc(Cl)c(F)cc2F)n2c1CN(C)CCC2 [Compound 554, (S)-3-(5-chloro-2,4-difluorophenyl)-N-(4,4-dimethyl-1-(methylamino)-1-oxopentan-2-yl)-8-methyl-6,7,8,9-tetrahydro-5H-imidazo[1,5-a][1,4]diazepine-1-carboxamide] |  |  | + | +
3 | CNC(=O)[C@H](CC(C)(C)C)NC(=O)c1nc(-c2cc(F)c(F)cc2F)n2c1CN(C)CCC2 [Compound 555, (S)-N-(4,4-dimethyl-1-(methylamino)-1-oxopentan-2-yl)-8-methyl-3-(2,4,5-trifluorophenyl)-6,7,8,9-tetrahydro-5H-imidazo[1,5-a][1,4]diazepine-1-carboxamide] |  |  | + | +
4 | CN1CCCn2c(-c3ccc(Cl)cc3F)nc(C(=O)N[C@H](C(=O)N(C)C)C(C)(C)C)c2C1 [Compound 556, (S)-3-(4-chloro-2-fluorophenyl)-N-(1-(dimethylamino)-3,3-dimethyl-1-oxobutan-2-yl)-8-methyl-6,7,8,9-tetrahydro-5H-imidazo[1,5-a][1,4]diazepine-1-carboxamide] |  | > 10 | + | 
5 | CN1CCCn2c(-c3ccccc3)nc(C(=O)N[C@H](C(=O)N(C)C)C(C)(C)C)c2C1 [Compound 557, (S)-N-(1-(dimethylamino)-3,3-dimethyl-1-oxobutan-2-yl)-8-methyl-3-phenyl-6,7,8,9-tetrahydro-5H-imidazo[1,5-a][1,4]diazepine-1-carboxamide] | > 10 |  |  | +
6 | CN1CCCn2c(-c3ccc(F)c(Cl)c3)nc(C(=O)N[C@H](C(=O)N(C)C)C(C)(C)C)c2C1 [Compound 558, (S)-3-(3-chloro-4-fluorophenyl)-N-(1-(dimethylamino)-3,3-dimethyl-1-oxobutan-2-yl)-8-methyl-6,7,8,9-tetrahydro-5H-imidazo[1,5-a][1,4]diazepine-1-carboxamide] |  |  | + | +
7 | CN1CCCn2c(-c3cc(Cl)ccc3F)nc(C(=O)N[C@H](C(=O)N(C)C)C(C)(C)C)c2C1 [Compound 559, (S)-3-(5-chloro-2-fluorophenyl)-N-(1-(dimethylamino)-3,3-dimethyl-1-oxobutan-2-yl)-8-methyl-6,7,8,9-tetrahydro-5H-imidazo[1,5-a][1,4]diazepine-1-carboxamide] |  | > 10 | + | 
8 | CN1CCCn2c(-c3ccc(Cl)c(F)c3)nc(C(=O)N[C@H](C(=O)N(C)C)C(C)(C)C)c2C1 [Compound 560, (S)-3-(4-chloro-3-fluorophenyl)-N-(1-(dimethylamino)-3,3-dimethyl-1-oxobutan-2-yl)-8-methyl-6,7,8,9-tetrahydro-5H-imidazo[1,5-a][1,4]diazepine-1-carboxamide] |  |  | + | +
9 | CN1CCCn2c(-c3ccc(F)c(F)c3)nc(C(=O)N[C@H](C(=O)N(C)C)C(C)(C)C)c2C1 [Compound 561, (S)-3-(3,4-difluorophenyl)-N-(1-(dimethylamino)-3,3-dimethyl-1-oxobutan-2-yl)-8-methyl-6,7,8,9-tetrahydro-5H-imidazo[1,5-a][1,4]diazepine-1-carboxamide] |  |  | + | +
10 | CN1CCCn2c(-c3cc(F)ccc3F)nc(C(=O)N[C@H](C(=O)N(C)C)C(C)(C)C)c2C1 [Compound 562, (S)-3-(2,5-difluorophenyl)-N-(1-(dimethylamino)-3,3-dimethyl-1-oxobutan-2-yl)-8-methyl-6,7,8,9-tetrahydro-5H-imidazo[1,5-a][1,4]diazepine-1-carboxamide] | > 10 |  |  | −
11 | CN1CCCn2c(-c3ccc(F)cc3F)nc(C(=O)N[C@H](C(=O)N(C)C)C(C)(C)C)c2C1 [Compound 563, (S)-3-(2,4-difluorophenyl)-N-(1-(dimethylamino)-3,3-dimethyl-1-oxobutan-2-yl)-8-methyl-6,7,8,9-tetrahydro-5H-imidazo[1,5-a][1,4]diazepine-1-carboxamide] |  |  | + | +
12 | CC(C)C[C@H](NC(=O)c1nc(-c2ccc(Cl)cc2F)n2c1CN(C)CCC2)C(N)=O [Compound 564, (S)-N-(1-amino-4-methyl-1-oxopentan-2-yl)-3-(4-chloro-2-fluorophenyl)-8-methyl-6,7,8,9-tetrahydro-5H-imidazo[1,5-a][1,4]diazepine-1-carboxamide] |  |  | + | +
13 | CC(C)C[C@H](NC(=O)c1nc(-c2ccc(F)cc2)n2c1CN(C)CCC2)C(N)=O [Compound 565, (S)-N-(1-amino-4-methyl-1-oxopentan-2-yl)-3-(4-fluorophenyl)-8-methyl-6,7,8,9-tetrahydro-5H-imidazo[1,5-a][1,4]diazepine-1-carboxamide] | > 10 |  |  | +
14 | CC(C)C[C@H](NC(=O)c1nc(-c2cccc(F)c2)n2c1CN(C)CCC2)C(N)=O [Compound 566, (S)-N-(1-amino-4-methyl-1-oxopentan-2-yl)-3-(3-fluorophenyl)-8-methyl-6,7,8,9-tetrahydro-5H-imidazo[1,5-a][1,4]diazepine-1-carboxamide] | > 10 |  |  | +
15 | CC(C)C[C@H](NC(=O)c1nc(-c2cc(F)ccc2F)n2c1CN(C)CCC2)C(N)=O [Compound 567, (S)-N-(1-amino-4-methyl-1-oxopentan-2-yl)-3-(2,5-difluorophenyl)-8-methyl-6,7,8,9-tetrahydro-5H-imidazo[1,5-a][1,4]diazepine-1-carboxamide] | > 10 |  |  | +
16 | CC(C)C[C@H](NC(=O)c1nc(-c2ccc(F)cc2F)n2c1CN(C)CCC2)C(N)=O [Compound 568, (S)-N-(1-amino-4-methyl-1-oxopentan-2-yl)-3-(2,4-difluorophenyl)-8-methyl-6,7,8,9-tetrahydro-5H-imidazo[1,5-a][1,4]diazepine-1-carboxamide] |  |  | + | +
17 | CC(C)C[C@H](NC(=O)c1nc(-c2cc(Cl)ccc2F)n2c1CN(C)CCC2)C(N)=O [Compound 569, (S)-N-(1-amino-4-methyl-1-oxopentan-2-yl)-3-(5-chloro-2-fluorophenyl)-8-methyl-6,7,8,9-tetrahydro-5H-imidazo[1,5-a][1,4]diazepine-1-carboxamide] |  |  | + | +
18 | CC(C)C[C@H](NC(=O)c1nc(C2CCCCC2)n2c1CN(C)CCC2)C(N)=O [Compound 570, (S)-N-(1-amino-4-methyl-1-oxopentan-2-yl)-3-cyclohexyl-8-methyl-6,7,8,9-tetrahydro-5H-imidazo[1,5-a][1,4]diazepine-1-carboxamide] |  |  | + | +
19 | CC(C)C[C@H](NC(=O)c1nc(-c2cc(Cl)c(F)cc2F)n2c1CN(C)CCC2)C(N)=O [Compound 571, (S)-N-(1-amino-4-methyl-1-oxopentan-2-yl)-3-(5-chloro-2,4-difluorophenyl)-8-methyl-6,7,8,9-tetrahydro-5H-imidazo[1,5-a][1,4]diazepine-1-carboxamide] |  |  | + | +
20 | CC(C)C[C@H](NC(=O)c1nc(-c2cc(F)c(F)cc2F)n2c1CN(C)CCC2)C(N)=O [Compound 572, (S)-N-(1-amino-4-methyl-1-oxopentan-2-yl)-8-methyl-3-(2,4,5-trifluorophenyl)-6,7,8,9-tetrahydro-5H-imidazo[1,5-a][1,4]diazepine-1-carboxamide] |  |  | + | +
21 | CN1CCCn2c(-c3ccc(Cl)cc3F)nc(C(=O)N[C@H](C(N)=O)C(C)(C)C)c2C1 [Compound 573, (S)-N-(1-amino-3,3-dimethyl-1-oxobutan-2-yl)-3-(4-chloro-2-fluorophenyl)-8-methyl-6,7,8,9-tetrahydro-5H-imidazo[1,5-a][1,4]diazepine-1-carboxamide] |  |  | + | +
22 | CN1CCCn2c(-c3cc(Cl)ccc3F)nc(C(=O)N[C@H](C(N)=O)C(C)(C)C)c2C1 [Compound 574, (S)-N-(1-amino-3,3-dimethyl-1-oxobutan-2-yl)-3-(5-chloro-2-fluorophenyl)-8-methyl-6,7,8,9-tetrahydro-5H-imidazo[1,5-a][1,4]diazepine-1-carboxamide] |  |  | + | +
23 | CN1CCCn2c(-c3cc(F)ccc3F)nc(C(=O)N[C@H](C(N)=O)C(C)(C)C)c2C1 [Compound 575, (S)-N-(1-amino-3,3-dimethyl-1-oxobutan-2-yl)-3-(2,5-difluorophenyl)-8-methyl-6,7,8,9-tetrahydro-5H-imidazo[1,5-a][1,4]diazepine-1-carboxamide] |  |  | + | +
24 | CN1CCCn2c(-c3ccc(F)c(Cl)c3)nc(C(=O)N[C@H](C(N)=O)C(C)(C)C)c2C1 [Compound 576, (S)-N-(1-amino-3,3-dimethyl-1-oxobutan-2-yl)-3-(3-chloro-4-fluorophenyl)-8-methyl-6,7,8,9-tetrahydro-5H-imidazo[1,5-a][1,4]diazepine-1-carboxamide] |  |  | + | +
